Test results reported in US20220087987A1, “A METHOD FOR TREATING SWI/SNF COMPLEX-DEFICIENT CANCERS COMPRISING GLUTATHIONE (GSH) METABOLIC PATHWAY INHIBITOR” (National Cancer Center, priority 2018, published 2022).

Legend:
Assay type in all cases: cell-based, human
[1] = system: ARID1A-KO cells and ARID1A-deficient cancer cells; assay: Apoptosis detection (cleaved caspase-3/7, Annexin V)
Procedure: The Annexin V-FITC/PI Apoptosis Detection Kit (Sigma-Aldrich) was used to detect apoptotic cells. Briefly, the cell pellet was suspended in 1× binding buffer and then incubated with Annexin V-FITC and PI in the dark for 10 min. Fluorescence was analyzed on a Guava flow cytometer (Millipore). Data were analyzed using GuavaSoft software (v. 2.7). Relative ratios of the Annexin V-positive fraction in treated samples were normalized against untreated samples.
GSH, ROS and apoptosis were detected using the GSH/GSSG-Glo Assay (Promega) and/or the GSH-Glo Assay (Promega), the ROS-Glo Assay (Promega), and the Caspase-Glo 3/7 Assay, respectively. To measure levels of GSH, ROS and apoptosis after drug treatment, cells were trypsinized, counted, reseeded at the specified density in 96-well plates and exposed to the indicated concentrations of drugs. After 16-48 hrs, luminescence was measured using an Envision Multi-label plate reader (PerkinElmer). […] Cells were trypsinized after a further 48 hrs, counted, and reseeded at the specified density in 96-well plates. After 72-120 hrs, luminescence was measured using an Envision Multi-label plate reader (PerkinElmer). Cell viability was also measured using the CellTiter-Glo Luminescent Cell Viability Assay (Promega). […] The GSH/GSSG ratio was calculated as the GSH-GSSG signal divided by the GSSG/2 signal. […]

[2] = system: TrxR (TrxR1, TrxR2 and TrxR3); assay: Detection of TrxR activity; details: 24 hrs
Procedure: TrxR activity including TrxR1, TrxR2 and TrxR3 was measured using the Thioredoxin Reductase Assay Kit (Abcam). Cells were trypsinized, counted, reseeded at the specified density in 10 cm dishes and exposed to the indicated concentrations of APR-246. After 24 hrs, cells were washed with cold PBS and lysed with buffer containing a proteinase inhibitor. After centrifugation, the supernatant was supplemented with a TrxR inhibitor and incubated for 20 min at 25° C. Absorbance was measured using an Envision Multi-label plate reader (PerkinElmer). Relative TrxR ratios were normalized against untreated samples.

p53, p21 = assay: Immunoblot for p53 and p21; details: ARID1A-WT and ARID1A-KO HCT116; 50 μM PRIMA-1, 50 μM APR-246, 10 μM Nutlin3a, 16 hrs
Procedure: The soluble fractions of whole-cell lysates were mixed with SDS sample buffer. […] The soluble fractions were mixed with SDS sample buffer. Tumor samples derived from xenografts were weighed and washed with PBS. […] The homogenized tumor samples were diluted in an additional 450 μl of NETN420 buffer, incubated for 30 min on ice, and centrifuged at 4° C. for 10 min at 15,000 rpm. The soluble fractions of whole-cell lysates were mixed with SDS sample buffer. Proteins were separated by SDS-PAGE, transferred to PVDF membranes, and immunoblotted with the indicated antibodies. β-actin was used as a loading control. Membranes were blocked overnight at 4° C. or for 1 hr at 25° C. with PVDF Blocking Reagent for Can Get Signal (TOYOBO) and then probed with Can Get Signal Solution 1 (TOYOBO) containing primary antibodies. After washing with TBS containing 0.1% Tween 20, the membranes were incubated with TBS containing 0.1% Tween 20, 1% BSA, and horseradish peroxidase-conjugated anti-mouse or anti-rabbit secondary antibodies, and visualized using Western Lightning ECL Pro (Perkin Elmer). Chemiluminescence signals were measured using LAS-3000 Imaging System (Fujifilm). Signal intensities were measured using Multi Gauge software.

ovarian PDCs = assay: Cell viability of ovarian patient-derived cancer cells; details: 33 μM APR-246 or 100 μM BSO for 6 days
Procedure: Tumor samples and ascites were obtained from four ovarian cancer patients who underwent surgery or cell-free and concentrated ascites reinfusion therapy at the National Cancer Center Hospital or Kaname-cho Hospital (Tokyo, Japan) and were cultured in vitro. This protocol was approved by the Institutional Review Board of the National Cancer Center (Tokyo, Japan), and informed consent was obtained from the patients. To establish CCCO219 and CCC1216 PDCs, patient ascites (24 ml) were diluted in two volumes of PBS containing 2 mM EDTA, layered over 15 ml Ficoll-Paque PLUS (GE Healthcare), and centrifuged at 2200 rpm for 30 min. The interphase mononuclear layer was transferred to a fresh conical tube and washed twice with PBS containing 2 mM EDTA. […]
Cell viability was examined by measuring the cellular ATP level using the CellTiter-Glo Luminescent Cell Viability Assay (Promega). […] Cells were trypsinized after a further 48 hrs, counted, and reseeded at the specified density in 96-well plates. To measure cell viability after drug treatment, cells were trypsinized, counted, reseeded at the specified density in 96-well plates, and exposed to the indicated concentrations of drugs. Cell viability was measured using the CellTiter-Glo Luminescent Cell Viability Assay. Luminescence was measured using an Envision Multi-label plate reader (PerkinElmer).

[3] = system: diffuse-type gastric cancer PDCs; assay: Cell viability of diffuse-type gastric cancer PDCs; details: treatment for 6 days
[4] = system: SWI/SNF complexes (SMARCA2, SMARCA4, SMARCB1, PBRM1) deficient cancer cells; assay: Cell viability of SWI/SNF complex-deficient cancer cell lines; details: treatment for 6 days
Procedure: Cell viability was examined by measuring the cellular ATP level using the CellTiter-Glo Luminescent Cell Viability Assay (Promega). To measure cell viability after siRNA-mediated knockdown, cell lines were transfected with siRNAs (25 nM) using Lipofectamine RNAiMAX. After 48 hrs, cells were trypsinized and repeatedly transfected with siRNAs (25 nM) using Lipofectamine RNAiMAX. Cells were trypsinized after a further 48 hrs, counted, and reseeded at the specified density in 96-well plates. To measure cell viability after drug treatment, cells were trypsinized, counted, reseeded at the specified density in 96-well plates, and exposed to the indicated concentrations of drugs. Cell viability was measured using the CellTiter-Glo Luminescent Cell Viability Assay. Luminescence was measured using an Envision Multi-label plate reader (PerkinElmer).

COCC1(CO)C(=O)C2CCN1CC2 (stereo not shown) [APR-246]
apoptosis (caspase activation, Annexin V) [1]: induced apoptosis
TrxR activity ([2]; ARID1A-WT or ARID1A-KO HCT116 cells, same concentrations as decrease GSH): did not affect TrxR activity
TrxR activity at a higher concentration ([2]; HCT116 cells, 50 μM): suppressed TrxR activity
expression of p53 and p21 (p53, p21): did not markedly affect expression of p53 or p21
sensitivity of ARID1A-deficient versus ARID1A-positive PDCs (ovarian PDCs): more sensitive
IC50 values in ARID1A-deficient versus ARID1A-proficient PDCs [3]: markedly lower in ARID1A-deficient PDCs than in ARID1A-proficient PDCs
IC50 values in SWI/SNF complexes deficient versus wild-type cell lines [4]: markedly lower in these SWI/SNF complexes deficient cell lines than in wild-type cell lines
